Patent US20230227411A1, “Benzimidazole Derivatives” (Hoffmann-La Roche Inc., priority 2020, published 2023)

Biological target: T1, human cGAS (residues 161-522) (Homo sapiens, UniProt Q8N884)
T1 construct: Recombinantly expressed purified human cGAS (residues 161-522) was used at 25 nM; made in house
Assay: Malachite Green assay to measure cGAS activity
Assay type: biochemical
Conditions: coupled enzymatic assay, phosphate detection by Malachite Green; 25 nM cGAS, 80 μM ATP, 80 μM GTP, 100 nM ISD, 4 hour at RT
Experimental: Malachite Green Assay to Measure cGAS Activity
Compounds were tested for cGAS inhibition in a coupled enzymatic assay based on Phosphate detection by Malachite Green. Final assay conditions were 20 mM TRIS pH 7.5 (Applichem), 5 mM MgCl2 (Sigma) and 0.01% BSA (Sigma) supplemented with 80 μM ATP (Sigma), 80 μM GTP (Sigma) and 100 nM Interferon Stimulating DNA (ISD) (Microsynth). Recombinantly expressed purified human cGAS (residues 161-522) was used at 25 nM.
All compounds were prepared as 10 mM stock solutions in DMSO and a 16 pt dilution series in DMSO with a dilution factor of 2.5 was prepared. 1 μL of DMSO dilution series was transferred to 32.3 μL reaction buffer, mixed by pipetting up/down, spun for 1 minute at 3000 rpm and was visually inspected for precipitation. 5 μL of 3-fold enzyme stock solution were transferred to an empty 384-well Black/Clear Flat Bottom Polystyrene NBS (Corning) rows 3-24. Rows 1-2 were filled with assay buffer. Plates were spun 10 seconds at 1000 rpm (164×g). 5 μL of compound intermediate dilution was added and mixed by pipetting up/down to rows 3-24. Rows 1-2 were filled with 3.1% DMSO assay buffer. Plates were spun 10 seconds at 1000 rpm (164×g). 5 μL 3-fold Nucleotide/DNA mix was added to all wells to start the reaction. Plates were spun 10 seconds at 1000 rpm (164×g) and incubated for 4 hour at room temperature (RT) in the dark. 5 μL 4 U/mL PPase (Sigma) were added to all wells. Plates spun 10 seconds at 1000 rpm (164×g). 10 μL BioMol green Solution (Enzo Life Sciences) was added to all wells. Plates spun 10 seconds at 1000 rpm (164×g) and incubated 30 minutes at RT in the dark. Absorbance data was collected 620 nm on an EnVision Multilable Reader (Perkin Elmer) and the following measurement settings were used: excitation filter photometric was 620 nm; excitation from the top; measurement height was 1 mm; number of flashes was 30; number of flashes integrated was 1.
All plates are checked for abnormalities and outliers in the Blank Control (no protein, row 1) and the Neutral Control (no compound, row 2) are excluded using the 3*SD rule. Data was normalized to 0 and 100% by Blank and Neutral Control and each curve was fitted and judged using the 4 parameter logistic equation to determine the IC50 for cGAS inhibition.
Table 1 provides IC50 values (μM) for cGAS inhibition obtained for particular examples of the present invention as measured by the above-described assay.

T1 sequence (Q8N884 161-522): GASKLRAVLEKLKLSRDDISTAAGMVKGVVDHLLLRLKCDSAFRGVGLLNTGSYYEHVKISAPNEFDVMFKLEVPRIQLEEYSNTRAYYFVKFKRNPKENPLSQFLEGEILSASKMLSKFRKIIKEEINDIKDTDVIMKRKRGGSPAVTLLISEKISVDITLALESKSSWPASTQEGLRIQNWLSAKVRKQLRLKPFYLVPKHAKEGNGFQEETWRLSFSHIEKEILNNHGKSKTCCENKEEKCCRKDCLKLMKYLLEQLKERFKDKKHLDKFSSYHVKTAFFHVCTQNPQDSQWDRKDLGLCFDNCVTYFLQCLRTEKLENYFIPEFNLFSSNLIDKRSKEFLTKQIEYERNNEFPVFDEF

SMILES	IC50 [µM]
Cc1ccc(-c2cc(C(=O)O)c3c(c2)ncn3-c2ccccc2)c(Cl)c1 [Example 1, 5-(2-Chloro-4-methylphenyl)-1-phenyl-1H-benzo[d]imidazole-7-carboxylic acid]	1.12
CC(=O)NCCCn1cnc2cc(-c3ccc(C)cc3Cl)cc(C(=O)O)c21 [Example 2, 1-(3-Acetamidopropyl)-5-(2-chloro-4-methylphenyl)-1H-benzo[d]imidazole-7-carboxylic acid]	2.34
Cc1ccc(-c2cc(C(=O)O)c3c(c2)ncn3CCCNS(C)(=O)=O)c(Cl)c1 [Example 3, 5-(2-Chloro-4-methylphenyl)-1-(3-(methylsulfonamido)propyl)-1H-benzo[d]imidazole-7-carboxylic acid]	1.34
Cc1ccc(-c2cc(C(=O)O)c3c(c2)ncn3Cc2cccc(Cl)c2)c(Cl)c1 [Example 4, 5-(2-Chloro-4-methylphenyl)-1-(3-chlorobenzyl)-1H-benzo[d]imidazole-7-carboxylic acid]	2.59
Cc1ccc(-c2cc(C(=O)O)c3c(c2)ncn3Cc2ccncc2)c(Cl)c1 [Example 5, 5-(2-Chloro-4-methylphenyl)-1-(pyridin-4-ylmethyl)-1H-benzo[d]imidazole-7-carboxylic acid]	0.87
Cc1ccc(-c2cc(C(=O)O)c3c(c2)ncn3Cc2cccnc2)c(Cl)c1 [Example 6, 5-(2-Chloro-4-methylphenyl)-1-(pyridin-3-ylmethyl)-1H-benzo[d]imidazole-7-carboxylic acid]	2.07
Cc1ccc(-c2cc(C(=O)O)c3c(c2)ncn3Cc2ccccn2)c(Cl)c1 [Example 7, 6-(2-Chloro-4-methylphenyl)-3-(pyridin-2-ylmethyl)benzimidazole-4-carboxylic acid]	1.76
Cc1ccc(-c2cc(C(=O)O)c3c(c2)ncn3CCN(C)C)c(Cl)c1 [Example 8, 5-(2-Chloro-4-methylphenyl)-1-(2-(dimethylamino)ethyl)-1H-benzo[d]imidazole-7-carboxylic acid]	2.02
COCCn1cnc2cc(-c3ccc(C)cc3Cl)cc(C(=O)O)c21 [Example 9, 5-(2-Chloro-4-methylphenyl)-1-(2-methoxyethyl)-1H-benzo[d]imidazole-7-carboxylic acid]	3.04
Cc1ccc(-c2cc(C(=O)O)c3c(c2)ncn3C2CC2)c(Cl)c1 [Example 10, 5-(2-Chloro-4-methylphenyl)-1-cyclopropyl-1H-benzo[d]imidazole-7-carboxylic acid]	4.79
CCn1cnc2cc(-c3cc(F)c(C)cc3Cl)cc(C(=O)O)c21 [Example 11, 5-(2-Chloro-5-fluoro-4-methylphenyl)-1-ethyl-1H-benzo[d]imidazole-7-carboxylic acid]	1.93
CCn1cnc2cc(-c3ccc(C)cc3Cl)cc(C(=O)O)c21 [Example 12, 5-(2-Chloro-4-methylphenyl)-1-ethyl-1H-benzo[d]imidazole-7-carboxylic acid]	2.81
Cc1ccc(-c2cc(C(=O)O)c3c(c2)ncn3CC(F)(F)F)c(Cl)c1 [Example 13, 5-(2-Chloro-4-methylphenyl)-1-(2,2,2-trifluoroethyl)-1H-benzo[d]imidazole-7-carboxylic acid]	3.29
Cc1ccc(-c2cc(C(=O)O)c3c(c2)ncn3CCc2ccccc2)c(Cl)c1 [Example 14, 5-(2-Chloro-4-methylphenyl)-1-phenethyl-1H-benzo[d]imidazole-7-carboxylic acid]	1.86
Cc1ccc(-c2cc(C(=O)O)c3c(c2)ncn3Cc2ccccc2)c(Cl)c1 [Example 15, 1-Benzyl-5-(2-chloro-4-methylphenyl)-1H-benzo[d]imidazole-7-carboxylic acid]	2.41
